Test results reported in the NIST ThermoML archive (doi:10.1016/j.jct.2019.04.010).
Numbers after ± are expanded uncertainties.

Tests used:
[1] = 100 kPa, Liquid; for viscosity: Concentric cylinders viscometry; for mass density: Vibrating tube method
[2] = xn = mol fraction of the nth substance listed; details: 100 kPa, Liquid, x2 = 0; for viscosity: Concentric cylinders viscometry; for mass density: Vibrating tube method

CCCCn1cc[n+](C)c1.O=[N+]([O-])[O-] [1-butyl-3-methylimidazolium nitrate]
viscosity ([1]; 293.15 K): 223.54 ± 45 mPa·s
mass density ([1]; 293.15 K): 1158.3 ± 1.5 kg/m3
viscosity ([1]; 298.15 K): 168.97 ± 34 mPa·s
mass density ([1]; 298.15 K): 1155.2 ± 1.5 kg/m3
viscosity ([1]; 303.15 K): 125.36 ± 25 mPa·s
mass density ([1]; 303.15 K): 1152.3 ± 1.5 kg/m3
viscosity ([1]; 308.15 K): 96.74 ± 19 mPa·s
mass density ([1]; 308.15 K): 1149.3 ± 1.5 kg/m3
viscosity ([1]; 313.15 K): 75.12 ± 15 mPa·s
mass density ([1]; 313.15 K): 1146.5 ± 1.5 kg/m3
viscosity ([1]; 318.15 K): 56.28 ± 11 mPa·s
mass density ([1]; 318.15 K): 1143.8 ± 1.4 kg/m3
viscosity ([1]; 323.15 K): 45.17 ± 9.1 mPa·s
mass density ([1]; 323.15 K): 1141.2 ± 1.4 kg/m3

CCC(C)O (stereo unspecified) [butan-2-ol] + CCCCn1cc[n+](C)c1.O=[N+]([O-])[O-]
viscosity ([2]; 293.15 K): 3.67 ± 0.73 mPa·s
mass density ([2]; 293.15 K): 806.7 ± 1 kg/m3
viscosity ([2]; 298.15 K): 3.04 ± 0.61 mPa·s
mass density ([2]; 298.15 K): 802.7 ± 1 kg/m3
viscosity ([2]; 303.15 K): 2.54 ± 0.51 mPa·s
mass density ([2]; 303.15 K): 798.4 ± 1 kg/m3
viscosity ([2]; 308.15 K): 2.13 ± 0.43 mPa·s
mass density ([2]; 308.15 K): 794.1 ± 1 kg/m3
viscosity ([2]; 313.15 K): 1.8 ± 0.36 mPa·s
mass density ([2]; 313.15 K): 789.8 ± 1 kg/m3
viscosity ([2]; 318.15 K): 1.54 ± 0.31 mPa·s
mass density ([2]; 318.15 K): 785.2 ± 1 kg/m3
viscosity ([2]; 323.15 K): 1.33 ± 0.27 mPa·s
mass density ([2]; 323.15 K): 780.6 ± 1 kg/m3

CCCC(C)O (stereo unspecified) [pentan-2-ol] + CCCCn1cc[n+](C)c1.O=[N+]([O-])[O-]
viscosity ([2]; 293.15 K): 3.97 ± 0.79 mPa·s
mass density ([2]; 293.15 K): 809.3 ± 1 kg/m3
viscosity ([2]; 298.15 K): 3.32 ± 0.66 mPa·s
mass density ([2]; 298.15 K): 805.3 ± 1 kg/m3
viscosity ([2]; 303.15 K): 2.81 ± 0.56 mPa·s
mass density ([2]; 303.15 K): 801.2 ± 1 kg/m3
viscosity ([2]; 308.15 K): 2.37 ± 0.47 mPa·s
mass density ([2]; 308.15 K): 797 ± 1 kg/m3
viscosity ([2]; 313.15 K): 1.99 ± 0.4 mPa·s
mass density ([2]; 313.15 K): 792.7 ± 1 kg/m3
viscosity ([2]; 318.15 K): 1.66 ± 0.33 mPa·s
mass density ([2]; 318.15 K): 788.4 ± 1 kg/m3
viscosity ([2]; 323.15 K): 1.39 ± 0.28 mPa·s
mass density ([2]; 323.15 K): 784 ± 1 kg/m3

CC(C)O [propan-2-ol] + CCCCn1cc[n+](C)c1.O=[N+]([O-])[O-]
viscosity ([2]; 293.15 K): 2.42 ± 0.48 mPa·s
mass density ([2]; 293.15 K): 785.4 ± 1 kg/m3
viscosity ([2]; 298.15 K): 2.08 ± 0.42 mPa·s
mass density ([2]; 298.15 K): 781.1 ± 1 kg/m3
viscosity ([2]; 303.15 K): 1.8 ± 0.36 mPa·s
mass density ([2]; 303.15 K): 776.8 ± 1 kg/m3
viscosity ([2]; 308.15 K): 1.56 ± 0.31 mPa·s
mass density ([2]; 308.15 K): 772.4 ± 1 kg/m3
viscosity ([2]; 313.15 K): 1.36 ± 0.27 mPa·s
mass density ([2]; 313.15 K): 768 ± 1 kg/m3
viscosity ([2]; 318.15 K): 1.19 ± 0.24 mPa·s
mass density ([2]; 318.15 K): 763.4 ± 1 kg/m3
viscosity ([2]; 323.15 K): 1.05 ± 0.21 mPa·s
mass density ([2]; 323.15 K): 758.8 ± 1 kg/m3
